Tested on: secretion of acidic gastric juice stimulated with histamine
Experiment: Inhibition of histamine-stimulated secretion of acidic gastric juice in dogs with a Heidenhain pouch, single intravenous injection
Assay type: in vivo, dog
Conditions: column fractions or products assayed in histamine-stimulated pouch dogs
Experimental: This test is used to determine the biological potency of the products, which is defined as the amount of the product expressed in μg./kg. which, on administration by intravenous injection to a dog provided with a Heidenhain pouch and whose secretion of gastric acid is stimulated to 60-89% of the maximum level of secretion by an infusion of histamine, causes a 50-70% inhibition of that acid secretion. Some variation in the biological potency of a particular sample is found if it is measured in different dogs and on different occasions, and so the result is best expressed as a dose range. The physiological effect of inhibiting the secretion of acidic gastric juice is of value in the treatment of duodenal ulcers, and under the test conditions, no serious toxic effects were observed. The polypeptides also show ulcer healing properties in a standard test. […]
Dogs were prepared with separated denervated fundic pouches, and a subcutaneous infusion of histamine was used to stimulate gastric secretion to approximately 60-80% of the maximal rate [usually an infusion of a solution of 600 μg. of histamine (expressed as base) in 0.48 ml. per hour was adequate]. […]
The specific activity may be determined from the results obtained for several different doses.

| Substance | biological activity (inhibition of gastric secretion), in words |
| --- | --- |
| material in fractions 49-65: pentapeptide liberated from γ-urogastrone: Glu 1, Leu 1, Lys 1, Trp 2, lysine at the N-terminus (KWWEL; Epidermal growth factor; UniProt P01133 1018-1022, looked up, fragment) | biologically inactive |
| material in fractions 38-52: hexapeptide liberated from β-urogastrone: Glu 1, Leu 1, Lys 1, Trp 2, Arg 1, lysine at the N-terminus (KWWELR; Epidermal growth factor; UniProt P01133 1018-1023, looked up, fragment) | biologically inactive |
